This note sets out measurements from patent US8921409B2, “Combination of 4-{3-[cis-hexahydrocyclopenta[c]pyrrol-2(1H)-yl]propoxy}benzamide and a NMDA receptor antagonist and pharmaceutical compositions containing the same” (Les Laboratoires Servier, priority 2011, dated 2014).

Each structure is given as a SMILES string. Structures can show the parent of a compound that is named as a salt.

In the experiment the test system is middle-aged (14-15 months old) C57B16 mouse. The experiment in a line: Contextual serial discrimination test (model of episodic memory). In kind it is in vivo. The source says:
The effects of 4-{3-[cis-hexahydrocyclopenta[c]pyrrol-2(1H)-yl]propoxy}benzamide and memantine (both in the form of a hydrochloride), administered on their own or in combination, were studied using a contextual discrimination test in the middle-aged (14-15 months old) C57B16 mouse (n=12 per group) (Célérier et al., Learn Mem., 2004, 11(2), 196-204; Tronche et al., Behav. Brain Res., 2010, 215(2): 255-60). In this model, the middle-aged mice have a specific dysfunction of contextual episodic memory compared to young mice, without a deficiency in spatial memory. This model is relevant for evaluating the effects of products in Alzheimer's disease because patients suffering from that form of dementia also have disturbances of contextual episodic memory, this being the case from a very early stage (Gold and Budson, Expert Rev Neurother., 2008, 8(12): 1879-1891).
The mice, placed in a box with raised edges, learn two types of consecutive spatial discrimination (D1: white floor, then D2: black floor) on a floor with four holes, in which just one of the holes is baited, the arrangement being opposite in D1 and in D2. The colour of the floor (black or white) constitutes the internal context specific to each discrimination. 24 hours after the learning step, the mice are returned to the white contextual floor, and the following are measured: • the percentage of correct responses (i.e. % of lowering the head into the hole that was baited during the learning exercise on the white floor), • the percentage of interfering responses (i.e. % of lowering the head into the hole that was baited during the learning exercise on the black floor, the last context presented to the mice), • and the percentage of errors (i.e. % of lowering the head into the two holes that were not baited during learning, whether on the white floor or on the black floor (see FIG. 1).
The power of contextual memory is defined as being the difference between the percentage of correct responses and the percentage of interfering responses. […]

For the molecule `CC12CC3CC(C)(C1)CC(N)(C3)C2` [memantine hydrochloride, memantine, reference compound], the “power of contextual memory (% correct responses minus % interfering responses)” value (memantine hydrochloride 1 mg/kg of base per os, chronic treatment for 9 days, carrier −34%) is reported as −2%.
For the molecule `NC(=O)c1ccc(OCCCN2C[C@H]3CCC[C@H]3C2)cc1` [compound S, 4-{3-[cis-hexahydrocyclopenta[c]pyrrol-2(1H)-yl]propoxy}benzamide], the “power of contextual memory (% correct responses minus % interfering responses)” value is −15% (compound S hydrochloride 0.1 mg/kg of base per os, chronic treatment for 9 days, carrier −34%) and “+14%” (compound S on its own, 1 mg/kg of base per os).
